Measurements reported in US20230374073A1, “DIMERIC MILLA IMMUNOMODULATORS” (Bristol-Myers Squibb Company, priority 2020, published 2023).
Starred links: 1 amine or outer side, 2 acyl side, 3 side chain; linkers in the order of their positions; H or OH if unused. Positions of bridges follow the written chain, without caps; N, C: chain ends. Non-standard residues stand in square brackets, D forms with d. Residues, ends and D or L forms follow the SMILES beside them. Chains are numbered I, II in the order given. Trp(1-CH2COOH) = N[C@@H](Cc1cn(CC(=O)O)c2ccccc12)C(=O)O; X1 = O=C(NC1CCC(CC2CCC(NC(=O)[*:2])CC2)CC1)[*:1]; Hyp = O=C(O)[C@@H]1C[C@@H](O)CN1; NMeNle = CCCC[C@H](NC)C(=O)O; NMeA = CN[C@@H](C)C(=O)O; Dab = NCC[C@H](N)C(=O)O; Dap = NC[C@H](N)C(=O)O

Molecular target: T1, PD-1/PD-L1 (Homo sapiens, UniProt Q9NZQ7)
T1 construct: TVMV protease site (C); made in house; host or cells: HEK293T cells
T1 sequence (Q9NZQ7 18-239): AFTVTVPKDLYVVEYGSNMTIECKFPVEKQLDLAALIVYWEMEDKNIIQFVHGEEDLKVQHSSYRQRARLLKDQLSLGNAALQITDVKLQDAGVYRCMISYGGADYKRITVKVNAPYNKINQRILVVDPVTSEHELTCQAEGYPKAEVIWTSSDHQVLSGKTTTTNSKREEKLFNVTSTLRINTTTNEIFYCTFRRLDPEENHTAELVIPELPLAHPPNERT
Assay: PD-1/PD-L1 Homogenous Time-Resolved Fluorescence (HTRF) binding assay
Source text: The ability of the compounds of formula (I) to bind to PD-L1 was investigated using a PD-1/PD-L1 Homogenous Time-Resolved Fluorescence (HTRF) binding assay.
Homogenous Time-Resolved Fluorescence (HTRF) Binding Assay
The interaction of PD-1 and PD-L1 can be assessed using soluble, purified preparations of the extracellular domains of the two proteins. The PD-1 and PD-L1 protein extracellular domains were expressed as fusion proteins with detection tags, for PD-1, the tag was the Fc portion of Immunoglobulin (PD-1-Ig) and for PD-L1 it was the 6 histidine motif (PD-L1-His). All binding studies were performed in an HTRF assay buffer consisting of dPBS supplemented with 0.1% […] bovine serum albumin and 0.05% (v/v) Tween-20. For the h/PD-L1-His binding assay, inhibitors were pre-incubated with PD-L1-His (10 nM final) for 15 m in 4 μl of assay buffer, followed by addition of PD-1-Ig (20 nM final) in 1 μl of assay buffer and further incubation for 15 m. HTRF detection was achieved using europium crypate-labeled anti-Ig (1 nM final) and allophycocyanin (APC) labeled anti-His (20 nM final). Antibodies were diluted in HTRF detection buffer and 5 μl was dispensed on top of the binding reaction. […]
Table 1 lists the IC50 values for representative examples of this disclosure measured in the PD-1/PD-L1 Homogenous Time-Resolved Fluorescence (HTRF) binding assay.

## CCCC[C@H]1C(=O)N(C)[C@@H](CCCC)C(=O)N[C@@H](CC(C)C)C(=O)N[C@H](C(=O)NCC(N)=O)CSCC(=O)N[C@@H](Cc2ccc(O)cc2)C(=O)N(C)[C@@H](C)C(=O)N[C@@H](CC(N)=O)C(=O)N2CCC[C@H]2C(=O)N[C@@H](CNC(=O)NC2CCC(CC3CCC(NC(=O)NC[C@@H]4NC(=O)[C@@H]5CCCN5C(=O)[C@H](CC(N)=O)NC(=O)[C@H](C)N(C)C(=O)[C@H](Cc5ccc(O)cc5)NC(=O)CSC[C@@H](C(=O)NCC(N)=O)NC(=O)[C@H](CC(C)C)NC(=O)[C@H](CCCC)N(C)C(=O)[C@H](CCCC)N(C)C(=O)[C@H](Cc5cn(CC(=O)O)c6ccccc56)NC(=O)[C@H](CCN)NC(=O)[C@H](Cc5c[nH]c6ccccc56)NC(=O)[C@@H]5C[C@@H](O)CN5C(=O)[C@H](CC(C)C)NC4=O)CC3)CC2)C(=O)N[C@@H](CC(C)C)C(=O)N2C[C@H](O)C[C@H]2C(=O)N[C@@H](Cc2c[nH]c3ccccc23)C(=O)N[C@@H](CCN)C(=O)N[C@@H](Cc2cn(CC(=O)O)c3ccccc23)C(=O)N1C (stereo partly shown) [Compound 1002] (I: {CH2CO}-Y[NMeA]NP[Dap]L[Hyp]W[Dab][Trp(1-CH2COOH)][NMeNle][NMeNle]LCG-NH2 / II: {CH2CO}-Y[NMeA]NP[Dap]L[Hyp]W[Dab][Trp(1-CH2COOH)][NMeNle][NMeNle]LCG-NH2; linker I:5-II:5 via X1; thioether I:N-I:14, II:N-II:14)
  IC50: 10 nM
